Consider 1 molecule from patent US7439250B2, “Compositions and methods related to fatty amino acid derivatives” (Board of Regents, The University of Texas System, priority 2002, dated 2008).

Data set [1] in a line: Liposome preparation by lipid film rehydration, observed by light microscopy. Format: physicochemical. The settings on record: PBS pH 7.2, 55° C. The procedure:
Two ALPs of General Formula 1 were prepared, a) laurylaldehyde (X=O and R^1, R^2=C11H23) or b) (S,S)-(3-Octadecanoyl-6-oxo-2-undecyl-hexahydro-pyrimidine-4-carboxlic acid and tested for the ability to form liposomes and for its suitability as a component of liposomes containing phospholipids and cholesterol. Liposomes were prepared by mixing varying amounts of the phospholipid, distearoyl phosphatidylcholine (DSPC), cholesterol or ALP in chloroform. The chloroform was removed to form a thin lipid film. After vacuum desiccation overnight, each lipid formulation was rehydrated with phosphate buffered saline (PBS), pH 7.2, warmed to 55° C. (phase transition temperature of DSPC) and vortexed vigorously to form multilamellar liposomes (MLV). Aliquots of each MLV formulation were set aside and observed by light microscopy. DSPC MLV, DSPC MLV containing 10 mole % ALP, ALP lipid structures (3 mg/ml) and ALP lipid structures (30 mg/ml), respectively, were imaged.

Data set [2] in a line: pH sensitivity of liposomes: turbidity (absorbance at 400 nm) as a function of pH titration. In kind it is physicochemical. As to conditions: samples (50 μl) in 3 ml PBS titrated with HCl; pH lowered from 4.5 to 3.5; DSPC samples extruded to 100 nm. How it is done:
FIG. 2 illustrates the absorbance change as a function of pH titration. Samples (50 μl) in 3 ml of PBS were titrated with HCl. The pH was measured and absorbence read at 400 nm.
The DSPC MLV samples were then processed by extrusion to form liposomes with diameters of 100 nm. The pH sensitivity of the liposomes were compared by monitoring turbidity at 400 nm as a function of pH. […] This feature of ALP may be useful in certain applications where pH plays a role.

In the case of `CCCCCCCCCCCCCCCCCC(=O)N1[C@@H](CCCCCCCCCCC)NC(=O)C[C@H]1C(=O)O` [ALP], the “structures formed on rehydration (light microscopy)” value is given as “crystal structures were evident” in data set [1] (ALP alone at high concentrations (30 mg/ml)) and “typically form liposomes” in data set [1] (ALP alone at low concentrations (3 mg/ml)). Further, the “absorbance change at 400 nm as a function of pH (pH sensitivity)” value in data set [2] is recorded as “increased”.
